Results published in patent EP0082498A2, “Beta-lactam compounds and process for the preparation thereof” (SAGAMI CHEMICAL RESEARCH CENTER, priority 1981, dated 1983).
In brackets after ≈: the same amount, converted by molar mass. Read-outs that look alike come from different tables or passages of the source.

What was measured:
Assay in all cases: Antibacterial activity, minimum inhibition concentration (MIC)
Type in all cases: cell-based
[1] = system: Staphylococcus aureus MS 353; settings: for minimum inhibition concentration (MIC): Table 1; for MIC: Staphylococcus aureus
Description: (§1) Antibacterial activities of the compounds according to this invention, which had been prepared in the preceding Examples, were measured according to the method prescribed by The Committee of Amendment of "The method for measurement of the minimum inhibition concentration", The Chemotherapy Association, Japan (See Chemotherapy, Vol. 29, No. 1, pp. 76 ~ 79 (1981)).
(§2) The test results are shown in terms of the minimum inhibition concentration (MIC) (unit: µg/mℓ) in the following Tables 1 to 4.

[2] = system: Proteus morganii IFO 3848; settings: for minimum inhibition concentration (MIC): Table 1; for MIC: Morganella morganii
Description: as §1, §2

[3] = system: Salmonella typhimurium IID-971; settings: for MIC: Salmonella enterica, read-out: minimum inhibition concentration (MIC)
Description: as §1, §2

[4] = Table 1, Salmonella typhimurium IID-971
[5] = MS353, Table 1, Staphylococcus aureus MS 353, read-out: minimum inhibition concentration (MIC)
[6] = IFO3848, Table 1, Proteus morganii IFO 3848, read-out: minimum inhibition concentration (MIC)

MIC [1, 5] [µg/mL]	MIC [2, 6] [µg/mL]	MIC [3, 4] [µg/mL]	Structure (SMILES)	other results
–	–	–	CCSC=C(C(=O)NC1C(=O)N2C(C(=O)O)=C(CSc3nnnn3C)CSC12)c1csc(N)n1 (stereo not drawn) [Example 11, 7-[2-ethylmercaptomethylene-2-(2-aminothiazol-4-yl)-acetamido]-3-(l-methyl-lH-tetrazol-5-yl)thiomethyl-3-cephem-4-carboxylic acid]	minimum inhibition concentration (MIC) ([1]; Staphylococcus aureus MS 353): 0.78 µg/mL (≈ 1.44 µM); minimum inhibition concentration (MIC) ([2]; Proteus morganii IFO 3848): ≤ 0.006 µg/mL; minimum inhibition concentration (MIC) [3, 4]: ≤ 0.006 µg/mL
3.12 (≈ 5.81 µM)	≤ 0.006	0.0125 (≈ 0.0233 µM)	COC(=N)C=C(C(=O)NC1C(=O)N2C(C(=O)O)=C(CSc3nnnn3C)CSC12)c1csc(N)n1 (single isomer, unassigned) [Example 17, 7-[2-(o-methylcarboxyimidoylmethylene)-2-(2-aminothiazol-4-yl)acetamido]-3-(1-methyl-1H-tetrazol-5-yl)thiomethyl-3-cephem-4-carboxylic acid]	–
1.56 (≈ 2.79 µM)	≤ 0.006	≤ 0.006	Nc1nc(C(=CCl)C(=O)NC2C(=O)N3C(C(=O)O)=C(CSc4nnnn4CC(=O)O)CS[C@H]23)cs1 (single isomer, unassigned) [Example 19, 7-[2-Chloromethylene-2-(2-aminothiazol-4-yl)acetamido]-3-(1-carboxymethyl-1H-tetrazol-5-yl)thiomethyl-3-cephem-4-carboxylic acid]	–
1.56	≤ 0.006	≤ 0.006	CCSC=C(C(=O)NC1C(=O)N2C(C(=O)O)=C(CSc3nnnn3C)CSC12)c1csc(N)n1 (stereo not drawn) [Example 10, sodium 7-[2-ethylmercaptomethylene-2-(2-aminothiazol-4-yl)acetamido]-3-(l-methyl-lH-tetrazol-5-yl)thiomethyl-3-cephem-4-carboxylate]	–
–	–	–	Cn1nnnc1SCC1=C(C(=O)O)N2C(=O)C(NC(=O)C(=CCl)c3ccccc3)C2SC1 (single isomer, unassigned) [Example 6, 7-(2-chloromethylenephenylacetamido)-3-(l-methyl-lH-tetrazol-5-yl)thiomethyl-3-cephem-4-carboxylic acid]	minimum inhibition concentration (MIC) ([1]; Staphylococcus aureus MS 353): 0.78 µg/mL (≈ 1.58 µM); minimum inhibition concentration (MIC) ([2]; Proteus morganii IFO 3848): 6.25 µg/mL (≈ 12.7 µM); minimum inhibition concentration (MIC) [3, 4]: 1.56 µg/mL (≈ 3.16 µM)
0.78	≤ 0.006	≤ 0.006	Cn1nc(O)c(=O)nc1SCC1=C(C(=O)O)N2C(=O)C(NC(=O)C(=CCl)c3csc(N)n3)C2SC1 (single isomer, unassigned) [Example 4, disodium 7-[2-chloromethylene-2-(2-aminothiazol-4-yl)acetamido]-3-(2,5-dihydro-6-hydroxy-2-methyl-5-oxo-as-triazin-3-yl)thiomethyl-3-cephem-4-carboxylate]	–
–	–	0.78 (≈ 1.58 µM)	Cn1nnnc1SCC1=C(C(=O)O)N2C(=O)C(NC(=O)C(=CCl)c3ccccc3)C2SC1 (single isomer, unassigned) [Example 5, 7-(2-chloromethylenephenylacetamido)-3-(1-methyl-lH-tetrazol-5-yl)thiomethyl-3-cephem-4-carboxylic acid]	minimum inhibition concentration (MIC) ([1]; Staphylococcus aureus MS 353): 0.05 µg/mL (≈ 0.101 µM); minimum inhibition concentration (MIC) ([2]; Proteus morganii IFO 3848): 0.78 µg/mL (≈ 1.58 µM)
0.78 (≈ 1.54 µM)	≤ 0.006	≤ 0.006	Cn1nnnc1SCC1=C(C(=O)O)N2C(=O)C(NC(=O)C(=CC#N)c3csc(N)n3)C2SC1 (single isomer, unassigned) [Example 16, 7-[2-Cyanomethylene-2-(2-aminothiazol-4-yl)acetamido]-3-(l-methyl-lH-tetrazol-5-yl)thiomethyl-3-cephem-4-carboxylic acid]	–
–	–	–	Cn1nnnc1SCC1=C(C(=O)O)N2C(=O)C(NC(=O)C(=CC#N)c3csc(NC=O)n3)[C@H]2SC1 (single isomer, unassigned) [Example 13, 7-[2-Cyanomethylene-2-(2-formylaminothiazol-4-yl)acetamido]-3-(1-methyl-1H-tetrazol-5-yl)thiomethyl-3-cephem-4-carboxylic acid]	minimum inhibition concentration (MIC) ([1]; Staphylococcus aureus MS 353): 50 µg/mL (≈ 93.7 µM); minimum inhibition concentration (MIC) ([2]; Proteus morganii IFO 3848): 50 µg/mL (≈ 93.7 µM); minimum inhibition concentration (MIC) [3, 4]: 25 µg/mL (≈ 46.9 µM)
0.2 (≈ 0.357 µM)	0.0125 (≈ 0.0223 µM)	≤ 0.006	Cn1nnnc1SCC1=C(C(=O)O)N2C(=O)C(NC(=O)C(=CBr)c3csc(N)n3)C2SC1 (stereo not drawn) [Example 21, 7-[2-Bromomethylene-2-(2-aminothiazol-4-yl)acetamido]-3-(l-methyl-lH-tetrazol-5-yl)thiomethyl-3-cephem-4-carboxylic acid]	–
0.1 (≈ 0.178 µM)	≤ 0.006	≤ 0.006	CSc1nnc(SCC2=C(C(=O)O)N3C(=O)C(NC(=O)C(=CCl)c4csc(N)n4)C3SC2)s1 (single isomer, unassigned) [Example 20, 7-[2-chloromethylene-2-(2-aminothiazol-4-yl)acetamido]-3-(2-methylthio-l,3,4-thiadiazol-5-yl)thiomethyl-3-cephem-4-carboxylic acid]	–
0.1	≤ 0.006	≤ 0.006	Cc1nnc(SCC2=C(C(=O)O)N3C(=O)C(NC(=O)C(=CCl)c4csc(N)n4)C3SC2)s1 (single isomer, unassigned) [Example 1, sodium 7-[2-chloromethylene-2-(2-aminothiazol-4-yl)acetamido]-3-(2-methyl-l,3,4-thiadiazol-5-yl)thiomethyl-3-cephem-4-carboxylate]	–
12.5 (≈ 23.9 µM)	≤ 0.006	0.1 (≈ 0.191 µM)	Cn1nnnc1SCC1=C(C(=O)O)N2C(=O)C(NC(=O)C(=CC(N)=O)c3csc(N)n3)C2SC1 (single isomer, unassigned) [Example 18, 7-[2-Carbamoylmethylene-2-(2-aminothiazol-4-yl)acetamido]-3-(1-methyl-lH-tetrazol-5-yl)thiomethyl-3-cephem-4-carboxylic acid]	–
–	–	–	Nc1nc(C(=CCl)C(=O)NC2C(=O)N3C(C(=O)[O-])=C(CSc4nncs4)CS[C@H]23)cs1.[Na+] (single isomer, unassigned) [Example 3, sodium 7-[2-chloromethylene-2-(2-aminothiazol-4-yl)acetamido]-3-(1,3,4-thiadiazol-5-yl)thiomethyl-3-cephem-4-carboxylate]	MIC ([1]; MS353, read-out: minimum inhibition concentration (MIC)): 0.1 µg/mL; MIC ([2]; IFO3848, read-out: minimum inhibition concentration (MIC)): ≤ 0.006 µg/mL; MIC [3]: ≤ 0.006 µg/mL
3.12	–	25	Cn1nnnc1SCC1=C(C(=O)O)N2C(=O)C(NC(=O)C(=CCl)Sc3cnc(N)s3)C2SC1 (stereo not shown) [Example 9, sodium 7-[2-chloromethylene-3-(2-aminothiazol-5-yl)mercaptoacetamido]-3-(1-methyl-1H-tetrazol-5-yl)thiomethyl-3-cephem-4-carboxylate]	–
1.56 (≈ 2.96 µM)	≤ 0.006	≤ 0.006	CSC=C(C(=O)NC1C(=O)N2C(C(=O)O)=C(CSc3nnnn3C)CSC12)c1csc(N)n1 (stereo not drawn) [Example 12, 7-[2-Methylmercaptomethylene-2-(2-aminothiazol-4-yl)-acetamido]-3-(l-methyl-lH-tetrazol-5-yl)thiomethyl-3-cephem-4-carboxylic acid]	–
0.78	–	25	CC(=O)OCC1=C(C(=O)O)N2C(=O)C(NC(=O)C(=CCl)c3cnc(N)s3)C2SC1 (stereo not shown) [Example 8, sodium 7-[2-chloromethylene-2-(2-aminothiazol-5-yl)acetamido]-cephalosporanate]	–

Structure (SMILES)	MIC [1, 5] [µg/mL]	MIC [2, 6] [µg/mL]	MIC [3, 4] [µg/mL]	other results
CC1=C(C(=O)O)N2C(=O)C(NC(=O)C(=CCl)c3csc(N)n3)C2SC1 (single isomer, unassigned) [Example 2, sodium 7-[2-chloromethylene-2-(2-aminothiazol-4-yl)acetamido]desacetoxy-cephalosporanate]	6.25	0.0125	0.0125	–
